# Reference: US9889115B2, “Fitness assay and associated methods” (priority 1998, dated 2018)
# Experiments:
# Assay type in all cases: cell-based
# [1] = system: HIV-1LAI; assay: PHA-PBMC assay, p24 Gag protein production; settings: Human immunodeficiency virus 1; HIV-1LAI, SI; PHA-PBMC, p24 (Table 3)
# [2] = system: HIV-1BAL; assay: PHA-PBMC assay, p24 Gag protein production; settings: Human immunodeficiency virus 1; HIV-1BAL, NSI; PHA-PBMC, p24 (Table 3)
# [3] = system: HIV-1ERS104pre; assay: PHA-PBMC assay, p24 Gag protein production; settings: Human immunodeficiency virus 1; HIV-1ERS104pre, SI; PHA-PBMC, p24
# Experimental: (§1) The patient profiles are shown below in Table 2.
# (§2) To determine protease inhibitory activity against multidrug resistant HIV, the IC50's were measured against a panel of clinically isolated mutant HIV isolates.
# (§3) All drug sensitivities were performed in triplicate. In order to determine whether the HIV isolates were syncitium inducing (SI) or non-syncitium inducing (NSI), an aliquot of viral stock supernatant, containing 100 TCID50, was cultured with 1×10^5 MT-2 cells in a 12-well plate. Cultures were maintained for four weeks and were examined for syncytium formation twice a week.
# [4] = system: multidrug-resistant HIV-1 clinical isolate, patient 1; assay: PHA-PBMC assay, p24 Gag protein production; settings: Human immunodeficiency virus 1; Patient/Isolate code 1; PHA-PBMC, p24
# Experimental: as §1, §2, §3
# [5] = system: multidrug-resistant HIV-1 clinical isolate, patient 2; assay: PHA-PBMC assay, p24 Gag protein production; settings: Human immunodeficiency virus 1; Patient/Isolate code 2; PHA-PBMC, p24
# Experimental: as §1, §2, §3
# [6] = system: multidrug-resistant HIV-1 clinical isolate, patient 3; assay: PHA-PBMC assay, p24 Gag protein production; settings: Human immunodeficiency virus 1; Patient/Isolate code 3; PHA-PBMC, p24
# Experimental: as §1, §2, §3
# [7] = system: multidrug-resistant HIV-1 clinical isolate, patient 4; assay: PHA-PBMC assay, p24 Gag protein production; settings: Human immunodeficiency virus 1; Patient/Isolate code 4; PHA-PBMC, p24
# Experimental: as §1, §2, §3
# [8] = system: multidrug-resistant HIV-1 clinical isolate, patient 5; assay: PHA-PBMC assay, p24 Gag protein production; settings: Human immunodeficiency virus 1; Patient/Isolate code 5; PHA-PBMC, p24
# Experimental: as §1, §2, §3
# [9] = system: multidrug-resistant HIV-1 clinical isolate, patient 6; assay: PHA-PBMC assay, p24 Gag protein production; settings: Human immunodeficiency virus 1; Patient/Isolate code 6; PHA-PBMC, p24
# Experimental: as §1, §2, §3
# [10] = system: multidrug-resistant HIV-1 clinical isolate, patient 7; assay: PHA-PBMC assay, p24 Gag protein production; settings: Human immunodeficiency virus 1; Patient/Isolate code 7; PHA-PBMC, p24
# Experimental: as §1, §2, §3
# [11] = system: multidrug-resistant HIV-1 clinical isolate, patient 8; assay: PHA-PBMC assay, p24 Gag protein production; settings: Human immunodeficiency virus 1; Patient/Isolate code 8; PHA-PBMC, p24
# Experimental: as §1, §2, §3
# [12] = system: multidrug-resistant HIV-1 clinical isolate, patient 10; assay: microbe, parasite or virus in culture; settings: Human immunodeficiency virus 1; Patient Isolate 10
# Experimental: (§4) The mutant multidrug-resistant HIV-1 strains corresponding to each patient, numbered 9-35, were genetically analyzed in terms of the nucleic acid sequences of the protease (PR) and a portion of the reverse transcriptase (RT) genes from which mutations in these enzymes were determined. The mutations in the protease and reverse transcriptase of the multidrug-resistant viruses isolated from each patient are shown below in Table 9b.
# [13] = system: multidrug-resistant HIV-1 clinical isolate, patient 11; assay: microbe, parasite or virus in culture; settings: Human immunodeficiency virus 1; Patient Isolate 11
# Experimental: as §4
# [14] = system: multidrug-resistant HIV-1 clinical isolate, patient 12; assay: microbe, parasite or virus in culture; settings: Human immunodeficiency virus 1; Patient Isolate 12
# Experimental: as §4
# [15] = system: multidrug-resistant HIV-1 clinical isolate, patient 13; assay: microbe, parasite or virus in culture; settings: Human immunodeficiency virus 1; Patient Isolate 13
# Experimental: as §4
# [16] = system: multidrug-resistant HIV-1 clinical isolate, patient 14; assay: microbe, parasite or virus in culture; settings: Human immunodeficiency virus 1; Patient Isolate 14
# Experimental: as §4
# [17] = system: multidrug-resistant HIV-1 clinical isolate, patient 15; assay: microbe, parasite or virus in culture; settings: Human immunodeficiency virus 1; Patient Isolate 15
# Experimental: as §4
# [18] = system: multidrug-resistant HIV-1 clinical isolate, patient 16; assay: microbe, parasite or virus in culture; settings: Human immunodeficiency virus 1; Patient Isolate 16
# Experimental: as §4
# [19] = system: multidrug-resistant HIV-1 clinical isolate, patient 17; assay: microbe, parasite or virus in culture; settings: Human immunodeficiency virus 1; Patient Isolate 17
# Experimental: as §4
# [20] = system: multidrug-resistant HIV-1 clinical isolate, patient 18; assay: microbe, parasite or virus in culture; settings: Human immunodeficiency virus 1; Patient Isolate 18
# Experimental: as §4
# [21] = system: multidrug-resistant HIV-1 clinical isolate, patient 19; assay: microbe, parasite or virus in culture; settings: Human immunodeficiency virus 1; Patient Isolate 19
# Experimental: as §4
# [22] = system: multidrug-resistant HIV-1 clinical isolate, patient 20; assay: microbe, parasite or virus in culture; settings: Human immunodeficiency virus 1; Patient Isolate 20
# Experimental: as §4
# [23] = system: multidrug-resistant HIV-1 clinical isolate, patient 21; assay: microbe, parasite or virus in culture; settings: Human immunodeficiency virus 1; Patient Isolate 21
# Experimental: as §4
# [24] = system: multidrug-resistant HIV-1 clinical isolate, patient 23; assay: microbe, parasite or virus in culture; settings: Human immunodeficiency virus 1; Patient Isolate 23
# Experimental: as §4
# [25] = system: multidrug-resistant HIV-1 clinical isolate, patient 27; assay: microbe, parasite or virus in culture; settings: Human immunodeficiency virus 1; Patient Isolate 27
# Experimental: as §4
# [26] = system: multidrug-resistant HIV-1 clinical isolate, patient 28; assay: microbe, parasite or virus in culture; settings: Human immunodeficiency virus 1; Patient Isolate 28
# Experimental: as §4
# [27] = system: multidrug-resistant HIV-1 clinical isolate, patient 29; assay: microbe, parasite or virus in culture; settings: Human immunodeficiency virus 1; Patient Isolate 29
# Experimental: as §4
# [28] = system: multidrug-resistant HIV-1 clinical isolate, patient 30; assay: microbe, parasite or virus in culture; settings: Human immunodeficiency virus 1; Patient Isolate 30
# Experimental: as §4
# [29] = system: multidrug-resistant HIV-1 clinical isolate, patient 31; assay: microbe, parasite or virus in culture; settings: Human immunodeficiency virus 1; Patient Isolate 31
# Experimental: as §4
# [30] = system: multidrug-resistant HIV-1 clinical isolate, patient 32; assay: microbe, parasite or virus in culture; settings: Human immunodeficiency virus 1; Patient Isolate 32
# Experimental: as §4
# [31] = system: multidrug-resistant HIV-1 clinical isolate, patient 33; assay: microbe, parasite or virus in culture; settings: Human immunodeficiency virus 1; Patient Isolate 33
# Experimental: as §4
# [32] = system: multidrug-resistant HIV-1 clinical isolate, patient 35; assay: microbe, parasite or virus in culture; settings: Human immunodeficiency virus 1; Patient Isolate 35
# Experimental: as §4
# [33] = system: multidrug-resistant HIV-1 clinical isolate, patient 9; assay: microbe, parasite or virus in culture; settings: Human immunodeficiency virus 1; Patient Isolate 9
# Experimental: as §4
# [34] = system: multidrug-resistant HIV-1 clinical isolate, patient 22; assay: IC50 against multidrug-resistant clinical isolates (Table 9a); settings: Human immunodeficiency virus 1
# Experimental: as §4
# [35] = system: multidrug-resistant HIV-1 clinical isolate, patient 34; assay: as above; settings: Human immunodeficiency virus 1
# Experimental: as §4
# [36] = system: wild-type HIV-1 (WT); assay: IC50 against wild-type HIV-1 (Table 9a); settings: Human immunodeficiency virus 1; (WT)
structure (smiles),measurement,setting,value
"CC(C)(C)NC(=O)[C@@H]1C[C@@H]2CCCC[C@@H]2CN1C[C@@H](O)[C@H](Cc1ccccc1)NC(=O)[C@H](CC(N)=O)NC(=O)c1ccc2ccccc2n1 [SAQ, Saquinavir]",IC50,[1],0.0054 µM
same,IC50,[2],0.0037 µM
same,IC50,[3],0.01 µM
same,IC50,[4],0.29 µM
same,IC50,[5],0.035 µM
same,IC50,[6],0.036 µM
same,IC50,[7],0.033 µM
same,IC50,[8],0.24 µM
same,IC50,[9],0.19 µM
same,IC50,[10],0.12 µM
same,IC50,[11],0.009 µM
same,IC50,[12],> 0.312 µM
same,IC50,[13],0.001 µM
same,IC50,[14],> 0.312 µM
same,IC50,[15],> 0.312 µM
same,IC50,[16],0.04 µM
same,IC50,[17],> 0.312 µM
same,IC50,[18],> 0.312 µM
same,IC50,[19],0.107 µM
same,IC50,[20],0.039 µM
same,IC50,[21],0.055 µM
same,IC50,[22],0.032 µM
same,IC50,[23],0.21 µM
same,IC50,[24],0.008 µM
same,IC50,[25],> 0.312 µM
same,IC50,[26],> 0.312 µM
same,IC50,[27],0.05 µM
same,IC50,[28],0.191 µM
same,IC50,[29],0.074 µM
same,IC50,[30],> 0.312 µM
same,IC50,[31],0.059 µM
same,IC50,[32],0.0616 µM
same,IC50,[33],> 0.312 µM
same,IC50,[34],0.003 µM
same,IC50,[35],0.063 µM
same,IC50,[36],0.007 µM
